Data published in PubChem BioAssay (NCI).
Several values for one entry are separate records, joined by “and”; a condition that tells them apart may be missing. Equal values may be shown once.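 Compound exposure: 48 hours, 5 concentrations, 96-well plates. Abbreviation: GI50, concentration required for 50% inhibition of growth. Definition used: TGI = concentration required for complete inhibition of growth.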

Legend:
Test in all cases: growth of human tumour cells (NCI), 48 h
[1] = tested on: NCI-H460 lung
[2] = tested on: UACC-62 melanoma
[3] = tested on: OVCAR-3 ovarian
[4] = tested on: HCT-15 colon
[5] = tested on: UACC-257 melanoma
[6] = tested on: M14 melanoma
[7] = tested on: RXF 393 renal
[8] = tested on: SK-MEL-5 melanoma
[9] = tested on: HCC-2998 colon
[10] = tested on: MDA-MB-435

| SMILES | TGI [1] [µM] | TGI [2] [µM] | TGI [3] [µM] | TGI [4] [µM] | TGI [5] [µM] | TGI [6] [µM] | TGI [7] | TGI [8] [µM] | TGI [9] | TGI [10] | GI50 [1] [µM] | GI50 [2] [µM] | GI50 [3] [µM] | GI50 [4] [µM] | GI50 [5] [µM] | GI50 [7] [µM] | GI50 [10] [µM] | GI50 [8] [µM] | GI50 [9] [µM] | GI50 [6] [µM] |
| --- | --- | --- | --- | --- | --- | --- | --- | --- | --- | --- | --- | --- | --- | --- | --- | --- | --- | --- | --- | --- |
| CN1CCCc2nc3ccccc3n2C1 | > 100 | > 100 | > 100 | > 100 | > 100 | > 100 | > 100 µM | > 100 |  |  |  |  |  |  |  |  |  |  |  |  |
| O=C(Nc1nc(=S)[nH][nH]1)C(=O)C(c1cnc2ccc([N+](=O)[O-])cc2n1)[N+](=O)[O-] (configuration not stated) | > 100 | > 100 | > 100 | > 100 | > 100 | > 100 | > 100 µM | > 100 | > 100 µM |  |  |  |  |  |  |  |  |  |  |  |
| N#Cc1ccccc1Sc1ccccc1N | > 100 | > 100 |  |  | > 100 |  | > 100 µM | 77.3 |  |  |  |  |  |  |  |  |  |  |  |  |
| CCc1c(OC(C)=O)c2c(NC3OC(COC(C)=O)C(OC(C)=O)C(OC(C)=O)C3OC(C)=O)nc(SC)nc2oc1=O (configuration not stated) | > 100 | > 100 | > 100 | > 100 | > 100 | > 100 | > 100 µM | > 100 | > 100 µM |  |  |  |  |  |  |  |  |  |  |  |
| Cc1ccc(S(=O)(=O)Nc2ccccc2C(C)(C)C)cc1 | 42.2 | 44.4 | 40 | 54.6 | 35.4 |  | 26.8 µM | 29.8 | > 100 µM |  |  |  |  |  |  |  |  |  |  |  |
| Nc1nc(-c2ccccc2)c(CC(=O)O)s1 | > 100 | > 100 | > 100 | > 100 | > 100 | > 100 | > 100 µM | > 100 |  | > 100 µM |  |  |  |  |  |  |  |  |  |  |
| CCC(Oc1ccc(OC)c2c1C(=O)CCC2)C(=O)O (configuration not stated) | > 100 | > 100 | > 100 | > 100 | > 100 | > 100 | > 100 µM | > 100 | > 100 µM |  |  |  |  |  |  |  |  |  |  |  |
| O=C([O-])c1ccc([I+]c2ccccc2)cc1 | > 100 | > 100 | > 100 | > 100 | > 100 | > 100 | > 100 µM | > 100 | > 100 µM |  |  |  |  |  |  |  |  |  |  |  |
| Nc1nc(Cl)c2ncn(Cc3ccc(C45CC6CC(CC(C6)C4)C5)c(OCc4cc(F)c(F)cc4F)c3)c2n1 | 5.89 | 12.6 | 14.7 | 14.1 | 3.97 |  | 2.66 µM | 2.24 | 5.58 µM | 17.6 µM | 2.39 | 1.64 | 2.09 | 3.57 | 0.494 | 0.677 | 2.98 | 0.392 | 2.48 |  |
| COc1cccc(-c2cc(=O)c3cc(N4CCN(C)CC4)ccc3[nH]2)c1 | > 100 | > 100 |  |  |  | > 100 | 5.77 µM and 0.976 µM |  | 4.71 µM and 3.88 µM | 0.554 µM and 0.364 µM |  | 1.46 |  | 2.44 |  | 0.238 | 0.16 | 0.766 | 1.15 | 2.61 |
